Data reported in patent US20250163057A1, “DCN-1 MODULATING COMPOUNDS AND METHODS OF USE THEREOF” (Cellarity, Inc., priority 2023, published 2025).
Where two headings read alike, the source gives them in different places.

Biological target: DCN1 (DCUND1) protein PONY domain (Homo sapiens (Human), UniProt Q96GG9)
Test: TR-FRET assay, DCN1 binding with FAM-labeled probe
Protocol: A TR-FRET assay was performed to evaluate the ability of the compounds to bind the DCN-1 protein.
The TR-FRET assay was designed following the Scott et al. protocol (Scott et al., Nat Chem Biol. 2017 August; 13(8): 850-857. Doi:10.1038/nchembio.2386). The recombinant form of the DCN1 (DCUND1) protein PONY domain was produced using an E. coli expression system at Viva Biotech (China). The DCN1 protein was biotinylated (EZ sulfo-NHS-LC-biotin; Thermofisher) for labeling with streptavidin terbium (Tb) cryptate in the reaction. The probe was changed to a non-covalent DCN1 inhibitor labeled with carboxyfluorescein (FAM; Zhou et al., Nat Commun. 2017; 8: 1150. Doi: 10.1038/s41467-017-01243-7). Buffer conditions were modified to enhance protein stability by exchanging Tween20 for TritonX and increasing NaCl to 200 mM. The compounds were screened against 5 nM DCN1 and 20 nM FAM-probe or 0.31 nM DCN1 and 900 nM total probe (100 nM FAM-labeled plus 800 nM unlabeled). The TR-FRET ratio between Tb-DCN1 and the FAM-labeled probe was measured in a 384-well opti-plate (Perkin Elmer) using a plate reader (BMG) at 1, 5, and 24 hrs after treatment with compound (final DMSO concentration of 0.1%).

[1] = 24 hr after treatment with compound, read-out: TR FRET IC50 24 hr
[2] = TR FRET IC50 1 hr (nM), 1 hr after treatment with compound
[3] = read-out: TR FRET IC50 1 hr, 1 hr after treatment with compound

Sequence of DCN1 (DCUND1) protein PONY domain (Q96GG9 60-248): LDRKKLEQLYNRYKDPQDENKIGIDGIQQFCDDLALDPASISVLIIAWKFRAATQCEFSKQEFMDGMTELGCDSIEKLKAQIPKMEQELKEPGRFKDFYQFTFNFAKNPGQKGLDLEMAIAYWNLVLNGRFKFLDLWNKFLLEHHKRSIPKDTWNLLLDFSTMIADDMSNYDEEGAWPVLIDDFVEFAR

| SMILES | IC50 [1] [nM] | IC50 [2] [nM] | IC50 [3] [nM] |
| --- | --- | --- | --- |
| CCN1C(=O)[C@@H](NC(=O)c2cccc(C(F)(F)F)c2)[C@@H](c2ccc(F)cc2)c2c(C(=O)N3CCC[C@@H]3C#N)nn(-c3ccccc3)c21 (mixture of isomers) [Compound I-94] | 200 to 1000 | 200 to 1000 |  |
| C/C=C(\CN1CCOCC1)C(=O)NCc1nn(-c2ccccc2)c2c1[C@H](c1ccc(F)cc1)[C@H](NC(=O)c1cccc(C(F)(F)F)c1)C(=O)N2CC (racemic) [Compound I-14] | ≤ 200 |  | ≤ 200 |
| CCN1C(=O)[C@@H](NC(=O)C2CC(=O)N(Cc3ccccc3)C2)[C@@H](C2CC2)c2c(C(=O)N3[C@H](C#N)C[C@H]4C[C@H]43)nn(C3CCOCC3)c21 (stereo partly drawn) [Compound I-435] | 1000 to 3000 | 1000 to 3000 |  |
| CCN1C(=O)[C@@H](NC(=O)Cc2cccc(C(F)(F)F)c2)[C@@H](C2CC2)c2c(C(=O)N3[C@H](C#N)C[C@H]4C[C@H]43)nn(C3CCOCC3)c21 [Compound I-592] | 1000 to 3000 | 1000 to 3000 |  |
| CCN1C(=O)[C@@H](NC(=O)c2cccc(C(F)(F)F)c2)[C@@H](c2ccc(F)cc2)c2c(CC/C=C\C(=O)N(C)C)nn(-c3ccccc3)c21 (racemic) [Compound I-69] | 200 to 1000 | 200 to 1000 |  |
| CCN1C(=O)[C@@H](NC(=O)c2ccc(C3CC3)cc2)[C@@H](C2CC2)c2c(C(=O)N3[C@H](C#N)C[C@H]4C[C@H]43)nn(C3CCOCC3)c21 [Compound I-508] | ≤ 200 | 1000 to 3000 |  |
| CCN1C(=O)[C@@H](NC(=O)c2cccc(C(F)(F)F)c2)[C@@H](c2ccc(F)cc2)c2c(CNC(=O)C3=CCCN(C)C3)nn(-c3ccccc3)c21 (racemic) [Compound I-28] | ≤ 200 | 200 to 1000 |  |
| CCN1C(=O)[C@@H](NC(=O)CCN2C(=O)COc3ccccc32)[C@@H](C2CC2)c2c(C(=O)N3[C@H](C#N)C[C@H]4C[C@H]43)nn(C3CCOCC3)c21 [Compound I-556] | 1000 to 3000 | 1000 to 3000 |  |
| C=C(COC)C(=O)NCc1nn(-c2ccccc2)c2c1[C@@H](c1ccc(F)cc1)[C@H](NC(=O)c1cccc(C(F)(F)F)c1)C(=O)N2CC [Compound I-109] | 200 to 1000 | 200 to 1000 |  |
| CCN1C(=O)[C@@H](NC(=O)c2cnn(CC(F)(F)F)c2)[C@@H](C2CC2)c2c(C(=O)N3[C@H](C#N)C[C@H]4C[C@H]43)nn(C3CCOCC3)c21 [Compound I-507] | 1000 to 3000 | 1000 to 3000 |  |
| CCN1C(=O)[C@@H](NC(=O)CCc2cnn(C)c2)[C@@H](C2CC2)c2c(C(=O)N3[C@H](C#N)C[C@H]4C[C@H]43)nn(C3CCOCC3)c21 [Compound I-433] | 1000 to 3000 | 1000 to 3000 |  |
| CCN1C(=O)[C@@H](NC(=O)c2cccc(C(F)(F)F)c2)[C@@H](c2ccc(F)cc2)c2c(C/C=C/C(=O)NCCN(C)C)nn(-c3ccccc3)c21 [Compound I-118] | 200 to 1000 | 200 to 1000 |  |
| CCN1C(=O)[C@@H](NC(=O)c2cccc(C(F)(F)F)c2)[C@@H](c2ccc(F)cc2)c2c(C/C=C/C(=O)N(C)C)nn(-c3ccccc3)c21 (racemic) [Compound I-41] | 1000 to 3000 | 1000 to 3000 |  |
| CCN1C(=O)[C@@H](NC(=O)c2cccc(C(F)(F)F)c2)[C@@H](c2ccc(F)cc2)c2c(CNC(=O)/C=C/C(=O)NCCN(C)C)nn(-c3ccccc3)c21 (racemic) [Compound I-154, rac-N1-(2-(dimethylamino)ethyl)-N4-(((4R,5R)-7-ethyl-4-(4-fluorophenyl)-6-oxo-1-phenyl-5-(3-(trifluoromethyl)benzamido)-4,5,6,7-tetrahydro-1H-pyrazolo[3,4-b]pyridine-3-yl)methyl)fumaramide] | ≤ 200 | 200 to 1000 |  |
| C=C(CN1CC(F)(F)C1)C(=O)NCc1nn(-c2ccccc2)c2c1[C@H](c1ccc(F)cc1)[C@H](NC(=O)c1cccc(C(F)(F)F)c1)C(=O)N2CC (racemic) [Compound I-95] | 200 to 1000 | 200 to 1000 |  |
| CCN1C(=O)[C@@H](NC(=O)C2CCC(F)(F)CC2)[C@@H](C2CC2)c2c(C(=O)N3[C@H](C#N)C[C@H]4C[C@H]43)nn(C3CCOCC3)c21 [Compound I-652] | 1000 to 3000 | 1000 to 3000 |  |
| C/C=C(\C)S(=O)(=O)NCc1nn(-c2ccccc2)c2c1[C@H](c1ccc(F)cc1)[C@H](NC(=O)c1cccc(C(F)(F)F)c1)C(=O)N2CC (racemic) [Compound I-159] | 200 to 1000 | 1000 to 3000 |  |
| CCN1C(=O)[C@@H](NC(=O)c2cccc(C(F)(F)F)c2)[C@@H](c2ccc(F)cc2)c2c(C/C=C/C(=O)NCCO)nn(-c3ccccc3)c21 (racemic) [Compound I-36] | 1000 to 3000 | 1000 to 3000 |  |

| SMILES | IC50 [1] [nM] | IC50 [2] [nM] | IC50 [3] [nM] |
| --- | --- | --- | --- |
| CCN1C(=O)[C@H](NC(=O)c2cccc(C(F)(F)F)c2)[C@@H](c2ccc(F)cc2)c2c(CN(C)C#N)nn(-c3ccccc3)c21 (single isomer, unassigned) [Compound I-82] | 1000 to 3000 | 1000 to 3000 |  |
| CCN1C(=O)[C@@H](NC(=O)CS(C)(=O)=O)[C@@H](C2CC2)c2c(C(=O)N3[C@H](C#N)C[C@H]4C[C@H]43)nn(C3CCOCC3)c21 [Compound I-546] | 1000 to 3000 | 1000 to 3000 |  |
| CCN1C(=O)[C@@H](NC(=O)c2ccc(N3CCN(C)CC3)cn2)[C@@H](C2CC2)c2c(C(=O)N3[C@H](C#N)C[C@H]4C[C@H]43)nn(C3CCOCC3)c21 [Compound I-588] | 1000 to 3000 | 1000 to 3000 |  |
| C=C(COC)C(=O)NCc1nn(-c2ccccc2)c2c1[C@H](c1ccc(F)cc1)[C@H](NC(=O)c1cccc(C(F)(F)F)c1)C(=O)N2CC [Compound I-113] | 200 to 1000 | 200 to 1000 |  |
| CCN1C(=O)[C@@H](NC(=O)c2cccc(C(F)(F)F)c2)[C@@H](c2ccc(F)cc2)c2c(NC(=O)C(C)(C)C#N)nn(-c3ccccc3)c21 (racemic) [Compound I-63] | 200 to 1000 |  |  |
| CCN1C(=O)[C@@H](NC(=O)c2cccc(C(F)(F)F)c2)[C@@H](c2ccc(F)cc2)c2c(CN(C)C(=O)C(F)Cl)nn(-c3ccccc3)c21 (mixture of isomers) [Compound I-145] | 200 to 1000 | 200 to 1000 |  |
| CCN1C(=O)[C@@H](NC(=O)C2CCN(C)CC2)[C@@H](C2CC2)c2c(C(=O)N3[C@H](C#N)C[C@H]4C[C@H]43)nn(C3CCOCC3)c21 [Compound I-423] | 1000 to 3000 | 1000 to 3000 |  |
| CCN1C(=O)[C@H](NC(=O)c2cccc(C(F)(F)F)c2)[C@H](c2ccc(F)cc2)c2c(CNC(=O)C3=CCN(C)C3)nn(-c3ccccc3)c21 (racemic) [Compound I-86, rac-N-(((4R,5R)-7-ethyl-4-(4-fluorophenyl)-6-oxo-1-phenyl-5-(3-(trifluoromethyl)benzamido)-4,5,6,7-tetrahydro-1H-pyrazolo[3,4-b]pyridin-3-yl)methyl)-1-methyl-2,5-dihydro-1H-pyrrole-3-carboxamide] | 200 to 1000 | 200 to 1000 |  |
| CCOc1ccc(C)c(C(=O)N[C@@H]2C(=O)N(CC)c3c(c(C(=O)N4[C@H](C#N)C[C@H]5C[C@H]54)nn3C3CCOCC3)[C@@H]2C2CC2)c1 [Compound I-620] | ≤ 200 |  | ≤ 200 |
| CCN1C(=O)[C@@H](NC(=O)C23CC(C(F)(F)F)(C2)C3)[C@@H](C2CC2)c2c(C(=O)N3[C@H](C#N)C[C@H]4C[C@H]43)nn(C3CCOCC3)c21 [Compound I-701] | 1000 to 3000 | 1000 to 3000 |  |
| CCN1C(=O)[C@@H](NC(=O)Cc2ccc(C)cc2C)[C@@H](C2CC2)c2c(C(=O)N3[C@H](C#N)C[C@H]4C[C@H]43)nn(C3CCOCC3)c21 [Compound I-511] | 1000 to 3000 | 1000 to 3000 |  |
| CCN1C(=O)[C@@H](NC(=O)c2cccc(C(F)(F)F)c2)[C@@H](c2ccc(F)cc2)c2c(C/C=C/C(=O)NCCCO)nn(-c3ccccc3)c21 (racemic) [Compound I-24] | 1000 to 3000 | 1000 to 3000 |  |
| CCN1C(=O)[C@@H](NC(=O)c2cccc(C(F)(F)F)c2)[C@H](c2ccc(F)cc2)c2c(CN(C)C#N)nn(-c3ccccc3)c21 (single isomer, unassigned) [Compound I-133] | 200 to 1000 | 200 to 1000 |  |
| CCN1C(=O)[C@@H](NC(=O)C(C)c2cccc(F)c2)[C@@H](C2CC2)c2c(C(=O)N3[C@H](C#N)C[C@H]4C[C@H]43)nn(C3CCOCC3)c21 (stereo partly drawn) [Compound I-440] | 1000 to 3000 | 1000 to 3000 |  |
| CCN1C(=O)[C@@H](NC(=O)c2cncc(C(F)(F)F)n2)[C@@H](C2CC2)c2c(C(=O)N3[C@H](C#N)C[C@H]4C[C@H]43)nn(C3CCOCC3)c21 [Compound I-590] | 1000 to 3000 | 1000 to 3000 |  |
| C=C(C)S(=O)(=O)NCc1nn(-c2ccccc2)c2c1[C@H](c1ccc(F)cc1)[C@H](NC(=O)c1cccc(C(F)(F)F)c1)C(=O)N2CC (racemic) [Compound I-54, rac-N-((4R,5R)-7-ethyl-4-(4-fluorophenyl)-3-(((1-methylvinyl)sulfonamido)methyl)-6-oxo-1-phenyl-4,5,6,7-tetrahydro-1H-pyrazolo[3,4-b]pyridin-5-yl)-3-(trifluoromethyl)benzamide] | 200 to 1000 | 200 to 1000 |  |
| CCN1C(=O)[C@@H](NC(=O)c2cc(S(C)(=O)=O)ccc2F)[C@@H](C2CC2)c2c(C(=O)N3[C@H](C#N)C[C@H]4C[C@H]43)nn(C3CCOCC3)c21 [Compound I-475] | 1000 to 3000 | 1000 to 3000 |  |
